Common to all, as to type: biochemical
The target in experiment [1] is T1, indoleamine 2,3-dioxygenase 1 (IDO1) (Homo sapiens, UniProt P14902).
T1 construct: full-length, N-terminal His-AK tag (His-AK-IDO1)
In words: purified recombinant enzyme assay, kynurenine absorbance at […] nm; also kynurenine reduction in IDO1-293T cells.

Experiment [2] concerns the target T2, tryptophan 2,3-dioxygenase 2 (TDO2) (Homo sapiens, UniProt P48775). The experiment is described as follows: purified recombinant enzyme assay, kynurenine absorbance at […] nm; also kynurenine reduction in TDO2-293T cells.
The target of experiment [3] is T2, tryptophan 2,3-dioxygenase 2 (TDO2). In words: purified recombinant enzyme assay, kynurenine absorbance at […] nm.
For experiment [4], the target named is T1, indoleamine 2,3-dioxygenase 1 (IDO1). The experiment is described as follows: purified recombinant enzyme inhibitor screen (compounds at […]), kynurenine absorbance at […] nm.

T2 sequence (P48775 whole entry): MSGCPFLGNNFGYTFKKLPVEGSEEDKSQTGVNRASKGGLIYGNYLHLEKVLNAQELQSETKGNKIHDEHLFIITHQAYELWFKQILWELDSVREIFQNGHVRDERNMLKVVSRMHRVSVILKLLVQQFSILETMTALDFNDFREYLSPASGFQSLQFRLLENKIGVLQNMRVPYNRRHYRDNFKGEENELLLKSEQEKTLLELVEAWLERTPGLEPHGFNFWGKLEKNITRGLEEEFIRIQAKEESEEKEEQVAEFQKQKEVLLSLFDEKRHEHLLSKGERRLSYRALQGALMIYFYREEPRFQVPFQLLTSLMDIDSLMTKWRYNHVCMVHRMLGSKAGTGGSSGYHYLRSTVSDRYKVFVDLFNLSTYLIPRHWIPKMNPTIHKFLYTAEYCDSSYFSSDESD
T1 sequence (P14902 whole entry): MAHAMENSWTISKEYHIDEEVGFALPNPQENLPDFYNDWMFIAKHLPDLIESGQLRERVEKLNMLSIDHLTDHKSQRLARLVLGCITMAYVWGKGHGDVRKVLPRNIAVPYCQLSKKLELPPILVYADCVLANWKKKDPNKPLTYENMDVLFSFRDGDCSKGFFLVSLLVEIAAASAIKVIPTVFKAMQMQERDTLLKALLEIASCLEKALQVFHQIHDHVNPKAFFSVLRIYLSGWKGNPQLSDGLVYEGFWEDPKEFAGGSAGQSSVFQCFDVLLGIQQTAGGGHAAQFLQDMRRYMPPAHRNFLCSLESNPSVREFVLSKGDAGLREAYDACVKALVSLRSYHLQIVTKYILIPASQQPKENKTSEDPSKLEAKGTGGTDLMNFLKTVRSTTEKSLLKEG

The IC50 is the concentration that inhibits the measured activity by half. Consider `Cc1c(S(=O)(=O)O)oc2c1C(=O)C(=O)c1c-2ccc2c1CCCC2(C)C` [STS, Sodium tanshinone IIA sulfonate], for which the IC50 in experiment [1] and in experiment [2] was less than 10 µM each time.

As to `Cc1coc2c1C(=O)C(=O)c1c-2ccc2c1CCCC2(C)C` [TSN, tanshinone IIA], the “purified recombinant enzyme assay, kynurenine absorbance at 490 nm” value in experiment [3] is on record as “TSN only reduced the activity of TDO2 but not IDO1 (Figure 1C)”.

`COc1c(O)cc2oc3cc(O)c(CC=C(C)C)c(O)c3c(=O)c2c1CC=C(C)C` [mangostin]: the “purified recombinant enzyme inhibitor screen (compounds at 10 μM), kynurenine ab” value in experiment [4] was “several compounds, including mangostin and androstenedione, could inhibit the activity of IDO1 (Supplementary Figures S1A,B)”.
